Test results taken from patent publication US7655392B2, “Quenching methods for red blood cell inactivation process” (priority 2004, dated 2010).

Tested on: red blood cells
Experiment: Gel card agglutination with rabbit anti-acridine sera
Format: cell-based
Description: The reduction in modification of red blood cells in the methods of the present invention can be evaluated by several assays. In one assay, rabbit polyclonal sera that is reactive with acridine is produced by injecting New Zealand White rabbits with an acridine compound conjugated to KLH.
This is conjugated to KLH by adding 10 μL of the compound (10 mM in de-ionized water) to 990 μL of a buffered solution of KLH (10 mg/mL in 50 mM Phosphate, 150 mM NaCl, PBS pH=7.2 with proprietary stabilizer, Pierce Cat # 77600) and incubating at room temperature for over 20 hours. Following this incubaton, the conjugated KLH is isolated from the unreacted S-197 and S-197 by-products by passing through a desalting column (e.g. D-salt columns, Pierce) and eluting in PBS buffer. The colored fractions of the solutions are then combined and the KLH conjugates are characterized by the ratio of absorbance at 210 and 410 nm. The acridine-KLH conjugate solutions are mixed with Complete Freund's Adjuvant for intramuscular injection into the rabbits at multiple sites to immunize the rabbits. […] The resulting solution can be assayed for agglutination by passing through a Buffer Gel Card (Micro Typing Systems, Pompano Beach, Fla.). The gel cards are designed to allow non-agglutinated red blood cells to pass through, while cells agglutinated by reaction with the rabbit sera and cross reacting with the anti-rabbit antibody will remain at the top of the gel. The cards are scored as 0, 1+, 2+, 3+, or 4+, where 0 indicates all cells are intact and are at the bottom of the gel, while 4+ indicates complete agglutination, with all cells at the top of the gel.
In these, the appropriate amount of 600 mM stock was added, mixed with an appropriate volume of 8% dextrose to provide the same volume addition to each RBC sample where in one study, with varied glutathione concentrations, the pH was measured after adding glutathione and after adding PIC-1. […] Similar samples were also assessed for the inactivation of S. epidermidis. […] For gel card analysis, after incubation, the RBC were washed in BBS and were diluted in BBS to a final hematocrit of 4%. A 25 μL aliquot of each was mixed with 15 μL of rabbit polyclonal anti-acridine sera diluted either 1:4 or 1:100 in BBS and the mixture was incubated at 37° C. for 30 minutes. The cells were subsequently washed with 1.5 mL BBS. […]
Heterophile antibodies are naturally occurring antibodies that recognize RBC from another species in a non-specific fashion. […] All samples were mixed with quencher first, then PIC-1 at 0.2 mM.
The standard condition was included, i.e. 0.2 mM PIC-1 and 2 mM acidic glutathione added together.

O=C(CCNc1c2ccccc2nc2ccccc12)OCCN(CCCl)CCCl [PIC-1]
Gel card score (Table 13: 5 mM GSH 2eq/15 mM Cys 1eq, 0.2 mM PIC-1, blood sample 1, sera 1:100): 0 | Gel card score (Table 13: 5 mM GSH 2eq/15 mM Cys 1eq, 0.2 mM PIC-1, blood sample 2, sera 1:4): 3 | Gel card score (Table 13: 5 mM GSH 2eq/15 mM Cys 1eq, 0.2 mM PIC-1, blood sample 2, sera 1:100): 0 | Gel card score (Table 13: 5 mM GSH 2eq/15 mM Cys 2eq, 0.2 mM PIC-1, blood sample 1, sera 1:4): 1 | Gel card score (Table 13: 5 mM GSH 2eq/15 mM Cys 2eq, 0.2 mM PIC-1, blood sample 1, sera 1:100): 0 | Gel card score (Table 13: 5 mM GSH 2eq/15 mM Cys 2eq, 0.2 mM PIC-1, blood sample 2, sera 1:4): 1 | Gel card score (Table 13: 5 mM GSH 2eq/15 mM Cys 2eq, 0.2 mM PIC-1, blood sample 2, sera 1:100): 0 | Gel card score (Table 13: 10 mM GSH 2eq/10 mM Cys 1eq, 0.2 mM PIC-1, blood sample 1, sera 1:4): 3 | Gel card score (Table 13: 10 mM GSH 2eq/10 mM Cys 1eq, 0.2 mM PIC-1, blood sample 1, sera 1:100): 0 | Gel card score (Table 13: 10 mM GSH 2eq/10 mM Cys 1eq, 0.2 mM PIC-1, blood sample 2, sera 1:4): 3 | Gel card score (Table 13: 10 mM GSH 2eq/10 mM Cys 1eq, 0.2 mM PIC-1, blood sample 2, sera 1:100): 0 | Gel card score (Table 13: 10 mM GSH 2eq/10 mM Cys 2eq, 0.2 mM PIC-1, blood sample 1, sera 1:4): 2 | Gel card score (Table 13: 10 mM GSH 2eq/10 mM Cys 2eq, 0.2 mM PIC-1, blood sample 1, sera 1:100): 0 | Gel card score (Table 13: 10 mM GSH 2eq/10 mM Cys 2eq, 0.2 mM PIC-1, blood sample 2, sera 1:4): 2 | Gel card score (Table 13: 10 mM GSH 2eq/10 mM Cys 2eq, 0.2 mM PIC-1, blood sample 2, sera 1:100): 0 | Gel card score (Table 13: 15 mM GSH 2eq/5 mM Cys 1eq, 0.2 mM PIC-1, blood sample 1, sera 1:4): 4 | Gel card score (Table 13: 15 mM GSH 2eq/5 mM Cys 1eq, 0.2 mM PIC-1, blood sample 1, sera 1:100): 0 | Gel card score (Table 13: 15 mM GSH 2eq/5 mM Cys 1eq, 0.2 mM PIC-1, blood sample 2, sera 1:4): 3 | Gel card score (Table 13: 15 mM GSH 2eq/5 mM Cys 1eq, 0.2 mM PIC-1, blood sample 2, sera 1:100): 0 | Gel card score (Table 13: 15 mM GSH 2eq/5 mM Cys 2eq, 0.2 mM PIC-1, blood sample 1, sera 1:4): 4 | Gel card score (Table 13: 15 mM GSH 2eq/5 mM Cys 2eq, 0.2 mM PIC-1, blood sample 1, sera 1:100): 0 | Gel card score (Table 13: 15 mM GSH 2eq/5 mM Cys 2eq, 0.2 mM PIC-1, blood sample 2, sera 1:4): 3 | Gel card score (Table 13: 15 mM GSH 2eq/5 mM Cys 2eq, 0.2 mM PIC-1, blood sample 2, sera 1:100): 0 | Gel card score (Table 13: 20 mM Cys 1eq, 0.2 mM PIC-1, blood sample 1, sera 1:4): 0 | Gel card score (Table 13: 20 mM Cys 1eq, 0.2 mM PIC-1, blood sample 1, sera 1:100): 0 | Gel card score (Table 13: 20 mM Cys 1eq, 0.2 mM PIC-1, blood sample 2, sera 1:4): 3 | Gel card score (Table 13: 20 mM Cys 1eq, 0.2 mM PIC-1, blood sample 2, sera 1:100): 0 | Gel card score (Table 13: 20 mM Cys 2eq, 0.2 mM PIC-1, blood sample 1, sera 1:4): 0 | Gel card score (Table 13: 20 mM Cys 2eq, 0.2 mM PIC-1, blood sample 1, sera 1:100): 0 | Gel card score (Table 13: 20 mM Cys 2eq, 0.2 mM PIC-1, blood sample 2, sera 1:4): 1 | Gel card score (Table 13: 20 mM Cys 2eq, 0.2 mM PIC-1, blood sample 2, sera 1:100): 0 | Gel card score (Table 13: 20 mM GSH 2eq, 0.2 mM PIC-1, blood sample 1, sera 1:4): 4 | Gel card score (Table 13: 20 mM GSH 2eq, 0.2 mM PIC-1, blood sample 1, sera 1:100): 0 | Gel card score (Table 13: 20 mM GSH 2eq, 0.2 mM PIC-1, blood sample 2, sera 1:4): 4 | Gel card score (Table 13: 20 mM GSH 2eq, 0.2 mM PIC-1, blood sample 2, sera 1:100): 0 | Gel card score (Table 14: 5 mM CysGly 1 eq. base, 0.2 mM PIC-1, 1:4 dilution of serum): 4 | Gel card score (Table 14: 5 mM CysGly 1 eq. base, 0.2 mM PIC-1, 1:100 dilution of serum): 2 | Gel card score (Table 14: 5 mM CysGly, 0.2 mM PIC-1, 1:4 dilution of serum): 4 | Gel card score (Table 14: 5 mM CysGly, 0.2 mM PIC-1, 1:100 dilution of serum): 0 | Gel card score (Table 14: 10 mM CysGly, 0.2 mM PIC-1, 1:4 dilution of serum): 4 | Gel card score (Table 14: 10 mM CysGly, 0.2 mM PIC-1, 1:100 dilution of serum): 0 | Gel card score (Table 14: […] CysGly 1 eq. base, 0.2 mM PIC-1, 1:4 dilution of serum): 4 | Gel card score (Table 14: […] CysGly 1 eq. base, 0.2 mM PIC-1, 1:100 dilution of serum): 4 | Gel card score (Table 14: […] CysGly, 0.2 mM PIC-1, 1:4 dilution of serum): 4 | Gel card score (Table 14: […] CysGly, 0.2 mM PIC-1, 1:100 dilution of serum): 3 | Gel card score (another study, rabbit sera 1:4: 10 mM neutralized (2 eq.) glutathione, 0.2 mM PIC-1): 4+ | Gel card score (another study, rabbit sera 1:4: 15 mM neutralized (2 eq.) glutathione, 0.2 mM PIC-1): 3+ | Gel card score (another study, rabbit sera 1:4: 20 mM neutralized (2 eq.) glutathione, 0.2 mM PIC-1): 1+ | Gel card score (another study, rabbit sera 1:4: standard condition): 4+ | Gel card score (another study, rabbit sera 1:100: 10, 15, 20 mM neutralized glutathione, all samples): 0
